Consider three compounds from patent US20250332198A1, “TARGETED ELIMINATION OF SENESCENT CELLS BY GAMMA-DELTA T CELLS” (SENS RESEARCH FOUNDATION, priority 2022, published 2025).

SMILES strings stand for the structures.

The subject of series [1] is macrophages. To be noted: as reported; cited from earlier work.
The subject of series [2] is platelet. The note with it: risk of causing thrombocytopenia; cited from earlier work.
Series [3] addresses T1, 3-hydroxy-3-methylglutaryl-CoA reductase (HMGCR) (Homo sapiens, UniProt P04035).
T1 construct: endogenous in cells; host or cells: senescent cells (SC)
T1 sequence (P04035 1-888): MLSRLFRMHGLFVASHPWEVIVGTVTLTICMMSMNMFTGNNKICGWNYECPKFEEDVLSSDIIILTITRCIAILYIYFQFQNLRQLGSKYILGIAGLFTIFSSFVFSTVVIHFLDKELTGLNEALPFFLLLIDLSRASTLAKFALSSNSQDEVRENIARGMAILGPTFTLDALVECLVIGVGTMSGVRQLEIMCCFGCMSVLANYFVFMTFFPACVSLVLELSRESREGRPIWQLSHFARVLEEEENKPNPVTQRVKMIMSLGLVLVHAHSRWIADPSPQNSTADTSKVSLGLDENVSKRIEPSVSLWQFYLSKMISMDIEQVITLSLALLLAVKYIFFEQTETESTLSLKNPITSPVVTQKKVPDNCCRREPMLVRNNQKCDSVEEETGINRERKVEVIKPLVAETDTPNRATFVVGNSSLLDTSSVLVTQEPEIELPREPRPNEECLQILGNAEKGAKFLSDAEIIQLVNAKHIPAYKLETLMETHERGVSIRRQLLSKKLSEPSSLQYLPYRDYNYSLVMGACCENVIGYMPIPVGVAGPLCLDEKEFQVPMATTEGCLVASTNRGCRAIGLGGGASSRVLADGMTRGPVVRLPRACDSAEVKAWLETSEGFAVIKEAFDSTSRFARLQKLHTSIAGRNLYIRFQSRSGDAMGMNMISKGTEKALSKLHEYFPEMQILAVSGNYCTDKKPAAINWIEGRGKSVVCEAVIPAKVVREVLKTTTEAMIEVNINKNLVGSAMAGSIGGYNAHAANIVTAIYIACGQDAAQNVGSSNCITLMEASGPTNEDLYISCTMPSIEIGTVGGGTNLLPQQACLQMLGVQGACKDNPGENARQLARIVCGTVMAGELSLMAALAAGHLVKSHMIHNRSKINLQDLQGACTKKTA
As to the kind of experiment: Mevalonate pathway inhibition in SC, effect on cytotoxicity by Vδ2 T cells. The note with it: SC treated with the HMGCR inhibitor. In kind it is cell-based. The source says: NKG2D recognizes target cells based on their surface expression of ligands such as MICA. […] Briefly, phosphoantigens such as IPP (an intermediate metabolite of mevalonate pathway) bind to the intracellular domain of BTN3A, leading to a conformational change in the extracellular domain that is recognized by γδTCR. […] To determine the role of mevalonate pathway, we inhibited the rate-limiting enzyme 3-hydroxy-3-methylglutaryl-CoA reductase (HMGCR) with mevastain in SC and tested the effect on cytotoxicity by Vδ2 T cells.

As to `CC1(C)CCC(c2ccc(Cl)cc2)=C(CN2CCN(c3ccc(C(=O)NS(=O)(=O)c4ccc(N[C@H](CCN5CCOCC5)CSc5ccccc5)c(S(=O)(=O)C(F)(F)F)c4)cc3)CC2)C1` [ABT263, navitoclax], in series [1], the effect on macrophages entry is “destroy macrophages”. For the same compound, the platelet toxicity entry in series [2] is reported as “dose-limiting platelet toxicity”.

In the case of `O=c1c(O)c(-c2ccc(O)c(O)c2)oc2cc(O)ccc12` [fisetin], the effect on macrophages entry in series [1] was “destroy macrophages”.

Take `CC[C@H](C)C(=O)O[C@H]1CCC=C2C=C[C@H](C)[C@H](CC[C@@H]3C[C@@H](O)CC(=O)O3)[C@H]21` [mevastatin]: the figures for the “effect on Vδ2 T cell-mediated cytotoxicity toward SC” value in series [3] and in series [3] (listed as mevastain) were “resistant to gamma delta T cells” and “significantly reduced Vδ2 T cell-mediated cytotoxicity”, respectively.
